2 substances from patent publication US7244438B2, “Uses for polycationic compounds” (Intercell AG, priority 2001, dated 2007) can be followed below.

Data set [1] concerns mouse bone marrow-derived CD11c+ dendritic cells. Nature of the data set: Cytokine production by dendritic cells incubated with poly-L-arginine and/or CpG-ODN (example 5). The class given is cell-based. The settings on record: CD11c+ dendritic cells incubated in vitro. As to the method: In parallel, in vitro studies were performed to clarify whether the complexation of CpG-ODN by poly-L-arginine can also directly influence the stimulation of mouse bone marrow-derived CD11c^+ dendritic cells by CpG-ODN concerning the production of TNF-α and IL-6. For this purpose, CD11c^+ dendritic cells were incubated either with poly-L-arginine, CpG-ODN or the combination of poly-L-arginine and CpG-ODN (example 5). The levels of TNF-a and IL-6 were determined in the supernatants derived from these cultures.

Data set [2] concerns human dendritic cells. Nature of the data set: Polyinosinic-polycytidylic acid-induced cytokine production by human dendritic cells. Format: cell-based. The note with it: human dendritic cells in vitro.
For data set [3] the following is noted: mouse, in vivo, sc.
Description: In order to investigate this assumption, fluorescence-labeled compounds were injected together subcutaneously into the flank of mice. At different time points after this treatment, injection sites were inspected for the presence of labeled compounds.
Experimental Groups (1 Mouse/Group 1/Indicated Time Point, 3 Mice/Group 2–4/time Point) • 1. untreated • 2. TRP-2181-188-FITC • 3. pR60-TRITC • 4. CpG-ODN1668-Cy5 • 5. TRP-2-FITC+pR60-TRITC • 6. TRP-2181-188-FITC+CpG-ODN-Cy5 • 7. pR60-TRITC+CpG-ODN 1668-Cy5 • 8. TRP-2 181-188-FITC+pR 60-TRITC+CpG-ODN 1668-Cy5
On day 0 mice were injected subcutaneously into the right flank with a total volume of 100 μl containing the above mentioned compounds. Animals were sacrificed at day 4 after injection and photos were taken from the injection sites (FIG. 3).

Where no end group is shown, it is not given here.

As for Poly-L-Arginine, in data set [1], the “IL-6 in culture supernatants” value is “neither TNF-α nor IL-6 were detectable” and the “TNF-α in culture supernatants” value is recorded as “neither TNF-α nor IL-6 were detectable”. Moreover, the “polyinosinic-polycytidylic acid-induced production of pro-inflammatory cytokines” value in data set [2] is on record as “inhibits”.
Consider “TRP-2181-188-peptide-FITC: FITC-labeled TRP-2-Peptide (VYDFFVWL), MHC class I (H-2Kb)-restricted epitope of mouse tyrosinase related protein-2 (not fully specified (N-terminus); also: FITC label; UniProt P29812 181-188, looked up, fragment)”, for which the “TRP-2 peptide-FITC detectable at the injection site” value in data set [3] is “not detectable at the injection site at day 4”.
